According to patent US4785008A, “N-substituted 2-amino-thiazoles, process for their preparation and their therapeutic application” (Laboratoires Chauvin-Blache, priority 1985, dated 1988):

Columns and labels:
[1] = system: protein influx into the anterior chamber of the eye; assay: Inhibition of protein influx into the anterior chamber of the eye after corneal paracentesis; type: in vivo, albino New Zealand rabbits; conditions: rabbit eye
Procedure: Anti-inflammatory activity measured by the inhibition of protein influx into the anterior chamber of the eye after corneal paracentesis. […] The effect of various concentrations of each compound is measured on 6 eyes of albino New Zealand rabbits.

[2] = system: prostanoid pathways (thromboxane B2) in rabbit platelets; assay: Inhibition of the metabolism of [14C]arachidonate in rabbit platelets (disappearance of TXB2); type: cell-based; conditions: Oryctolagus cuniculus, Platelet
Procedure: 1.2--Inhibition of the metabolism of [^14 C]arachidonate in rabbit platelets
12 ml of blood are withdrawn nitracardially into ACD (anticoagulant consisting of an aqueous solution containing 0.27 g of citric acid, 0.5 g of disodium citrate and 0.02 g of glucose for 20 ml of water) in a proportion of 1 volume of ACD for 6 volumes of blood. The mixture is centrifuged (10 minutes, 200×g, 20° C.), and the supernatent (PRP) collected and centrifuged again (15 minutes, 1500×g, 20° C.). The platelet pellet is washed in buffer I [NaCl, 8 g/l; Tris, 1.21 g/l; KCl, 0.2 g/l; gelatin, 2.5 g/l; this mixture is heated to 90° C. to dissolve the gelatin, and then glucose, 1 g/l, and ethylene glycol bis(β-aminoethyl ether) N,N,N',N'-tetraacetic acid or EGTA, 0.075 g/l, are added]. The suspension is centrifuged (15 minutes, 1500×g, 20° C.) and the pellet taken up in buffer II (NaCl, 8 g/l; Tris, 1.21 g/l; KCl, 0.2 g/l; CaCl2, 0.145 g/l; MgCl2, 0.2 g/l; gelatin, 2.5 g/l; the mixture is brought to 90° C., glucose, 1 g/l, is added and the pH is adjusted to 7.4 with 0.1N HCl).
The platelet suspension (0.4 ml/tube) is preincubated for 10 minutes at 37° C., either with 10 μl of DMSO (control), or with varied concentrations of test compounds dissolved in 10 μl of DMSO.
The incubation is carried out in the presence of [^14 C]arachidonate (1 μg, 0.2 μCi) distributed in 0.1 ml of buffer II, and the incubation is then blocked after 15 minutes with 50 μl of citric acid and 250 μl of saturated NaCl.
After extraction with ethyl acetate, the metabolites of [^14 C]arachidonate are separated by thin layer chromatography and quantified using a radio-scanner.
The percentage inhibition of the prostanoid pathways is estimated by measuring the disappearance of thromboxane B2 (TXB2) in terms of the concentration of each compound.
Results corresponding to 50 μM and 100 μM of compounds of formula I are given by way of example in Table II.

[3] = system: lipoxygenase of circulating human leukocytes (PMNs); assay: Inhibition of the lipoxygenase of circulating human leukocytes (PMNs), by radioimmunoassay of LTC4; type: cell-based; conditions: Leukocyte, 8 min, calcium ionophore A23187 (0.25 μM), 8 minutes at 37° C.
Procedure: 1.1--Inhibition of the lipoxygenase of circulating human leukocytes (PMNs), by radioimmunoassay of LTC4 Methods Heparinized human blood is sedimented for 1 hour at 37° C. in sterile saline solution containing 4.5% of Dextran T 500. The upper, leukocyte-rich phase, is collected, deposited on Ficoll-Paque (7:3 v/v) and then centrifuged (20 minutes, 400×g, 4° C.). The centrifugation pellet is treated with 0.75% strength NH4 Cl to lyse the red cells. After centrifugation (20 minutes, 400×g, 4° C.), supernatent is removed and the pellet is resuspended in Dulbecco's PBS buffer containing 1 mM calcium chloride. […] The incubation is blocked by adding one volume of ice-cold water, and the suspension is centrifuged (15 minutes, 1500×g, 4° C.). Aliquots of the supernatent are then subjected to radioimmunoassay (New England Nuclear Kit). The percentage inhibition of the 5-lipoxygenase pathway is measured in terms of the concentration of each compound. From these curves, the concentration which 50% inhibits LTC4 tracer formation (IC50) is deduced.

[4] = Acute toxicity (LD50) in rats; conditions: rat, in vivo, 14 days of observation, with 5% confidence interval
Procedure: The rats used are of Wistar strain of average weight 150 g.
The LD50 is determined after 14 days of observation.
The results below give the LD50 values for the compound 3 of the invention, together with the 5% confidence interval.

[5] = system: leukocyte infiltration into the aqueous humour; conditions: recent experimental studies; cited from earlier work

Structure (SMILES)	inhibition at 50 µM [2] [%]	inhibition at 100 µM [2] [%]	IC50 [3] [µM]	also measured
Cc1ccc(Nc2nccs2)c(O)c1.Cl [Compound 3, 2-(2-hydroxy-4-methylphenyl)aminothiazole hydrochloride]	100	100	0.33	Inhibition (%) of protein influx into the anterior chamber of the eye after corneal paracentesis ([1]; 0.1 mg/100 ml): 20%; Inhibition (%) of protein influx into the anterior chamber of the eye after corneal paracentesis ([1]; 0.5 mg/100 ml): 35%; Inhibition (%) of protein influx into the anterior chamber of the eye after corneal paracentesis ([1]; 1 mg/100 ml): 50%; LD50 at 336 h ([4]; iv, female rat): 51 ± 2 mg/kg; LD50 at 336 h ([4]; iv, male rat): 51 ± 2 mg/kg; LD50 at 336 h ([4]; po, female rat): 2350 ± 90 mg/kg; LD50 at 336 h ([4]; po, male rat): 2950 ± 96 mg/kg
COc1ccc2c(c1)c(CC(=O)O)c(C)n2C(=O)c1ccc(Cl)cc1 [Indomethacin]				leukocyte infiltration into the aqueous humour [5]: increases the leukocyte infiltration into the aqueous humour
Oc1ccc(Cl)cc1Nc1nccs1 [Compound 2]	100	100	0.3	
Cc1ccc(O)c(Nc2nccs2)c1 [Compound 4]	68		0.25	
CC(C)(C)c1ccc(Nc2nccs2)c(O)c1 [Compound 5]	76		1.6	
Oc1ccccc1Nc1nccs1 [Compound 1]	34	91	1.2	
Cc1cc(C)c(O)c(Nc2nccs2)c1 [Compound 6]	70		0.2	
Oc1cccnc1Nc1nccs1 [Compound 7]	36	36		
